The values that follow come from PMC4506092, “Utilizing Chemical Genomics to Identify Cytochrome b as a Novel Drug Target for Chagas Disease” (PLoS Pathogens, 2015).

Several values for one entry are separate records, joined by “and”; a condition that tells them apart may be missing. Identical values can stand only once. Like-named read-outs stand apart in the source and are kept apart here.

A word on the EC50: it is the concentration at which the effect is half-maximal. Broadly, the IC50 is the concentration that inhibits the measured activity by half. The low end stands for greater potency, the high end for weaker potency.

The test system of one experiment is T. b. brucei procyclics. As to the kind of experiment: T. b. brucei procyclic form in vitro efficacy assay. It is filed as cell-based, Trypanosoma brucei brucei. Particulars: 72 hours. Here is the method:
For conversion from the bloodstream form to the procyclic form, bloodstream form parasites were transferred from HMI-9 medium to Differentiating Trypanosome Medium (DTM, pH = 7.2), consisting of: 6.8 g / L NaCl, 400 mg / L KCl, 200 mg / L CaCl2, 140 mg / L NaH2PO4.H2O, 200 mg / L MgSO4.7H2O, 7.94 g / L HEPES, 2.2 g / L NaHCO3, 110 mg / L sodium pyruvate, 10 mg / L phenol red, 14 mg / L hypoxanthine, 1 mg / L biotin, 760 mg / L glycerol, 640 mg / L proline, 236 mg / L glutamic acid, 1.34 g / L glutamine, 7.5 mg / L hemin (in 50 mM sodium hydroxide), 1X MEM amino acid solution (Invitrogen),1X MEM non-essential amino acids solution (Invitrogen), 28.2 mg / L bathocuproine disulfonate.Na2, 182 mg/L cysteine, 0.2 mM 2-mercaptoethanol, 15% heat-inactivated FBS, and 5 mM sodium citrate and cis-aconitate. Following medium exchange, parasites were incubated at a lower temperature (27°C / 5% CO2), monitored for change in morphology to procyclic parasites, and sub-cultured for long-term cultivation.
For compound screening, 20 μliters (5,000 parasites) of T. b. brucei procyclic culture were added to 384-well plate wells filled with 20 μliters of DTM medium and pre-dispensed compounds (0.25% final DMSO concentration). Plates were then incubated for 72 hours at 27°C / 5% CO2. Cell viability was assessed using the CellTiter-Glo Luminescent Cell Viability Assay (Promega).

The subject of experiment [1] is L. donovani promastigotes. In words: Leishmania donovani promastigote proliferation assay. It is filed as cell-based.
The test system of experiment [2] is T. cruzi epimastigotes (GNF7686-resistant, DR). In words: T. cruzi epimastigote growth assay (CellTiter-Glo), GNF7686-resistant. It is filed as cell-based, Trypanosoma cruzi. Here is the method:
To determine compound activity on the T. cruzi epimastigote form, epimastigotes (20 μL; 2.5 × 10^5 parasites / mL) were added to 384-well assay plates containing 20 μL of LIT media with pre-dispensed compounds (0.2% DMSO final concentration) and incubated for seven days at 26°C / 0% CO2. Parasite viability was assessed at the end of this incubation period using the CellTiter-Glo Luminescent Cell Viability Assay (Promega). Luminescence as a measure of parasite viability was measured on the EnVision plate reader.
Resistant epimastigotes were cloned by the limiting dilution technique.

For experiment [3], the system named is P. falciparum yDHODH-D10attB. As to the kind of experiment: P. falciparum SYBR Green proliferation assay, yDHODH-D10attB line. It is filed as cell-based, Plasmodium falciparum. The method, then:
GNF7686 and cytochrome b inhibitors were assayed for activity on two Plasmodium falciparum (P. falciparum) lines: D10attB and yDHODH-D10attB. The D10attB line is reliant on the coenzyme Q-dependent malarial dihydroorotate dehydrogenase (PfDHODH), whereas the yDHODH-D10attB line expresses also the fumarate-utilizing Saccharomyces cerevisiae (S. cerevisiae) DHODH, which circumvents reliance on PfDHODH and renders this line fully resistant to cytochrome b inhibitors. The use of these two lines allows for distinction of selection of potent cytochrome b inhibitors as described in detail in the Results section. Growth and viability of P. falciparum cell lines (in the presence or absence of drug) in infected erythrocytes were assessed using a SYBR Green-based proliferation assay exactly as described previously.

Experiment [4] deals with L. donovani axenic amastigotes. In words: Leishmania donovani axenic amastigote in vitro efficacy assay. It is filed as cell-based. The conditions noted are these: 48 hours. The method, then: Leishmania donovani (L. donovani) axenic amastigotes (strain MHOM/SD/62/1S-CL2D) were maintained at 37°C / 5% CO2 in RPMI-1640 medium containing 4 mM L-glutamine, 20% heat inactivated FBS, 100 IU penicillin / 100 μg streptomycin per mL, 23 μM folic acid, 100 µM adenosine, 22 mM D-glucose, and 25 mM 2-(N-morpholino)ethanesulfonic acid (pH 5.5 adjusted at 37°C using 1M HCl).
For compound screening, axenic amastigotes were seeded into 384-well plates containing axenic amastigote medium with pre-dispensed compounds (0.25% final DMSO concentration) at a density of 9,600 cells / well. Plates were incubated for 48 hours at 37°C / 5% CO2. Cell viability was assessed using the CellTiter-Glo Luminescent Cell Viability Assay (Promega).

The subject of experiment [5] is T. cruzi epimastigote respiration (wild-type). In words: T. cruzi epimastigote respiration (oxygen consumption, MitoXpress-Xtra), wild-type. The class given is cell-based. The conditions noted are these: Trypanosoma cruzi; intact epimastigotes. Here is the method:
GNF7686 and cytochrome b inhibitors (0.2% DMS0 final concentration) were added to 384-well assay plates containing 20 μL of assay buffer (250 mM sucrose, 15 mM KCl, 5 mM MgCl2, 1 mM EGTA, 30 mM K2HPO4, pH 7.4) and allowed to dissolve for two hours. Meanwhile, T. cruzi epimastigotes were harvested (800 × g for 5 min at 4°C), washed twice with buffer A (10 mM Tris-HCl, pH = 7.4, 0.23 M mannitol, 0.07 M sucrose, 0.2 mM EDTA, 0.2% bovine serum albumin, 0.5 mM phenylmethanesulfonyl fluoride), and finally resuspended in buffer A at a final concentration of 150 × 10^6 epimastigotes / mL. Next, 20 μL of T. cruzi epimastigote suspension (3 x 10^6 parasites) was added to each sample well, and then 15 μL of MitoXpress-Xtra probe (Cayman Chemicals) was added (final assay volume of 60 μL). Probe phosphorescence is quenched in the presence of oxygen and is inversely proportional to the amount of oxygen present in the solution. […] The assay plate was transferred to a Gemini XPS fluorescence plate reader (Molecular Devices) and read at 3 minute intervals at excitation and emission wavelengths of 380 nm and 650 nm, respectively, for 30 minutes at 37°C. The slope for the linear portion of time course of fluorescence increase (rate of oxygen consumption) was calculated after subtraction of blank well values. […]

The mark [6] stands for this setting: Trypanosoma cruzi, 168 h, GNF7686-resistant T. cruzi culture, seven days, read-out: Epimastigote EC50, DR.
[7] abbreviates: Plasmodium falciparum; read-out: P. falciparum EC50, yDHODH-D10attB.

In the case of `O=C(Cn1ccnc1[N+](=O)[O-])NCc1ccccc1` [Benznidazole], the EC50 with T. b. brucei procyclics (Trypanosoma brucei) was > 25000 nM; in experiment [1] (Leishmania donovani), > 25000 nM; in experiment [2] (setting [6]) it was 6700 ± 600 nM; in experiment [3] (setting [7]), > 12500 nM; in experiment [4] (Leishmania donovani) it was > 25000 nM.
In the case of `CCCCCC[C@H]1C(=O)O[C@H](C)[C@H](NC(=O)c2cccc(NC=O)c2O)C(=O)O[C@@H](C)[C@@H]1OC(=O)CC(C)C` [Antimycin A], the EC50 is 30 ± 2 nM in the experiment on T. b. brucei procyclics (Trypanosoma brucei); 10 ± 3 nM in experiment [1] (Leishmania donovani); 1800 ± 210 nM in experiment [2] (setting [6]); > 12500 nM in experiment [3] (Plasmodium falciparum, read-out: P. falciparum EC50, yDHODH-D10attB); 10 ± 4 nM in experiment [4] (Leishmania donovani). The “Shift of epimastigote EC50, GNF7686-resistant vs wild-type” value in experiment [2] amounted to 40 fold. Further, in experiment [5], inhibition was half-maximal at 40 nM (IC50).
`CCc1c(C)c(C#N)c2nc3ccccc3n2c1O` [GNF7686]: the EC50 in the experiment on T. b. brucei procyclics (Trypanosoma brucei) is 590 ± 90 nM; in experiment [1] (Leishmania donovani) it was 460 ± 120 nM; in experiment [2] (setting [6]), 730 ± 40 nM; in experiment [2] (Trypanosoma cruzi, epimastigote clones, read-out: EC50 of three clones isolated from the GNF7686-resistant culture) it was ~1000 nM; in experiment [3] (setting [7]) it was > 12500 nM; in experiment [4] (Leishmania donovani), 460 ± 280 nM. For the same compound, in experiment [2], the “Shift of epimastigote EC50, GNF7686-resistant vs wild-type” value was ~ 5 fold and ~ 4 fold. Further, it took 210 nM to reach half-maximal inhibition in experiment [5] (IC50).
For `CO\C=C(C(=O)OC)/C(C)=C\C=C\c1ccccc1` [Strobilurin], the EC50 was 3200 ± 330 nM in the experiment with T. b. brucei procyclics (Trypanosoma brucei); 4300 ± 820 nM in experiment [1] (Leishmania donovani); 340 ± 10 nM in experiment [2] (setting [6]); > 12500 nM in experiment [3] (setting [7]); 9100 ± 2500 nM in experiment [4] (Leishmania donovani).
Turning to `CO/C(=C/C(N)=O)[C@H](C)[C@H](/C=C/c1csc(-c2csc([C@@H](C)/C=C/C=C/C(C)C)n2)n1)OC` [Myxothiazol], the half-maximal effective concentration (EC50) in the experiment with T. b. brucei procyclics was 2500 ± 220 nM; in experiment [1], 3100 ± 450 nM; in experiment [2] (GNF7686-resistant T. cruzi culture, seven days, read-out: Epimastigote EC50, DR) it was 430 ± 80 nM; in experiment [3] (read-out: P. falciparum EC50, yDHODH-D10attB) it was 8400 ± 1600 nM; in experiment [4], 9600 ± 3900 nM.
